In test [1] the test system is MCF7 (breast) cancer cells. Kind of test: In vitro cytotoxic activity (MTT) assay, MCF7. Format: cell-based. Particulars: Homo sapiens, exposed for 96 hours, read-out: IC50, inhibition of cell proliferation, MCF7 (breast). Here is the method: (§1) Compounds 1-12 were screened for their in vitro cytotoxic activity utilizing a 3-(4,5-dimethyl-thiazol-2-yl)-2,5-diphenyltetrazolium bromide (MTT) assay against selected cancer human cell lines consisting of PC3 (prostate), HCT116 (colon), A375 (melanoma), H1299 (lung), MIAPaCa-2 (pancreas), HL60 (leukemia), MCF7 (breast), MDA-MB-231 (breast) (T. Mosmann, J. Immunol. Meth., 1983, 65, 55-63). The cells were cultured at 37° C. in RMPI1640 medium supplemented with 10% fetal bovine serum, 50 IU/mL penicillin, and 50 μg/mL streptomycin in a 5% CO2 incubator. All cells were sub-cultured 3 times/week by trypsinisation. Viable cells were seeded and allowed to adhere for 12 h before a test drug was added in 96-well plates at an initial density of 1.0×10^5 cells/mL. Tumour cell lines were separately exposed to various concentrations of the tested compounds followed by incubation at a temperature of 37° C. during 96 h inside a medium of fresh RMPI 1640. Cells were subsequently incubated at 37° C. using MTT at 0.5 mg/mL during 4 h. After removal of supernatant, formazan crystals were dissolved in isopropanol and the optical density was measured at 570 nm. CX-4945 was used as a positive control.

The subject of test [2] is HL60 (leukemia) cancer cells. Kind of test: In vitro cytotoxic activity (MTT) assay, HL60. Format: cell-based. As to conditions: Homo sapiens, HL-60, exposed for 96 hours, read-out: IC50, inhibition of cell proliferation, HL60 (leukemia). As to the method:
as §1

For test [3], the system named is H1299 (lung) cancer cells. The experiment in a line: In vitro cytotoxic activity (MTT) assay, H1299. The test is classed as cell-based. As to conditions: Homo sapiens, NCI-H1299, exposed for 96 hours, read-out: IC50, inhibition of cell proliferation, H1299 (lung). As to the method: as §1
For test [4], the target named is T1, recombinant human CK2 (RRββ-holoenzyme) (Homo sapiens, UniProt P68400).
T1 construct: purchased Millipore
T1 sequence (P68400 whole entry): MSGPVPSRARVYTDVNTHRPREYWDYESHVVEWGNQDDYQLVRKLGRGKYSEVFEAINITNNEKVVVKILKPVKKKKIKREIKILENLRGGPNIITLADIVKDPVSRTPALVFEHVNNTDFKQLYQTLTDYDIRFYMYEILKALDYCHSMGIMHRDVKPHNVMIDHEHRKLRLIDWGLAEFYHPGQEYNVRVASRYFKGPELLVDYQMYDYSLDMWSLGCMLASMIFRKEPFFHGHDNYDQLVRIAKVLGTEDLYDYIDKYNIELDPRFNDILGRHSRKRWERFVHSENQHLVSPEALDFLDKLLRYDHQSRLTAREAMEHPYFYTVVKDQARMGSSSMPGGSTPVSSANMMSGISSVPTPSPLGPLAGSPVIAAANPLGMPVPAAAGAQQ
T1 sequence (P67870 whole entry partner): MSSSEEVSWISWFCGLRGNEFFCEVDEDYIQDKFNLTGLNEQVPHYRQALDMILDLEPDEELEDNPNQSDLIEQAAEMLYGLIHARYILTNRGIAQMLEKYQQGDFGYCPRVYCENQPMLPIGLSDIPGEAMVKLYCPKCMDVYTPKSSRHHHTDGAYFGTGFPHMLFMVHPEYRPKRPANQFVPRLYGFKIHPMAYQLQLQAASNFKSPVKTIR
Kind of test: CK2 kinase assay (radiometric, [γ-33P]ATP). Particulars: final ATP 15 μM, 10 min at 30° C., eight concentrations; read-out: IC50, protein kinase CK2 activity. The test is classed as biochemical. Here is the method: CK2 Kinase Assay was conducted using the protocol as described in Pierre F. et al; J. Med. Chem. 2011, 54, 635-654. The tested compounds in aqueous solution were added at a volume of 10 μL to a reaction mixture comprising 10 μL of assay dilution buffer (ADB; 20 mM MOPS, pH 7.2, 25 mM β-glycerol phosphate, 5 mM EGTA, 1 mM sodium orthovanadate, and 1 mM dithiothreitol), 10 μL of substrate peptide (RRRDDDSDDD, dissolved in ADB at a concentration of 1 mM), 10 μL of recombinant human CK2 (RRββ-holoenzyme, 25 ng dissolved in ADB; Millipore). Reactions were initiated by the addition of 10 μL of ATP solution (90% 75 mMMgCl2, 75 μM ATP (final ATP concentration:15 μM) dissolved in ADB; 10% [γ-33P] ATP (stock 1 mCi/100 μL; 3000 Ci/mmol (Perkin-Elmer) and maintained for 10 min at 30° C. The reactions were quenched with 100 μL of 0.75% phosphoric acid and then transferred to and filtered through a phosphor cellulose filter plate (Millipore). After washing each well five times with 0.75% phosphoric acid, the plate was dried under vacuum for 5 min and, following the addition of 15 μL of scintillation fluid to each well, the residual radioactivity was measured using a Wallac luminescence counter. The IC50 values were derived from eight concentrations of test inhibitors.

The subject of test [5] is MIAPaCa-2 (pancreas) cancer cells. The experiment in a line: In vitro cytotoxic activity (MTT) assay, MIAPaCa-2. Format: cell-based. Particulars: Homo sapiens, MIA PaCa-2; MIAPaCa-2 cells, exposed for 96 hours; read-out: IC50, inhibition of cell proliferation, MIAPaCa-2 (pancreas). As to the method:
as §1

Test [6] has as its system PC3 (prostate) cancer cells. Kind of test: In vitro cytotoxic activity (MTT) assay, PC3. Format: cell-based. Particulars: Homo sapiens, PC-3, exposed for 96 hours, read-out: IC50, inhibition of cell proliferation, PC3 (prostate). As to the method: as §1
Test [7] relates to A375 (melanoma) cancer cells. Kind of test: In vitro cytotoxic activity (MTT) assay, A375. Format: cell-based. As to conditions: Homo sapiens, A-375, exposed for 96 hours, read-out: IC50, inhibition of cell proliferation, A375 (melanoma). Here is the method: as §1
The test system of test [8] is HCT116 (colon) cancer cells. Kind of test: In vitro cytotoxic activity (MTT) assay, HCT116. The test is classed as cell-based. As to conditions: Homo sapiens, HCT-116, exposed for 96 hours, read-out: IC50, inhibition of cell proliferation, HCT116 (colon). As to the method:
as §1

The test system of test [9] is MDA-MB-231 (breast) cancer cells. The experiment in a line: In vitro cytotoxic activity (MTT) assay, MDA-MB-231. Format: cell-based. Particulars: Homo sapiens; MDA-MB-231 cells, exposed for 96 hours; read-out: IC50, inhibition of cell proliferation, MDA-MB-231 (breast). Here is the method: as §1

Regarding `O=C(O)c1ccc2c3cnccc3n(C(=O)c3cccc(Cl)c3)c2c1` [Compound (7), 5-(3-chlorobenzoyl)-5H-pyrido[4,3-b]indole-7-carboxylic acid], the IC50 was determined as 5200 nM in test [1]; 1700 nM in [2]; 1100 nM in test [3]; 36 nM in test [4]; 2300 nM in test [5]; 900 nM in test [6]. Moreover, the IC50 in test [7] was found to be 4400 nM; in [8] it was 1600 nM; in test [9], 3600 nM.

The values are drawn from patent US11851430B1, “Pyrido[4,3-B]indole-7-carboxylic acid compounds as CK2 inhibitors” (KING FAISAL UNIVERSITY, priority 2023, dated 2023).
